Data taken from US11919888B2, “Neprilysin inhibitors” (THERAVANCE BIOPHARMA R&D IP, LLC, priority 2012, dated 2024).

Target: T1, human NEP (Homo sapiens, UniProt P08473)
T1 construct: purchased R&D Systems, Minneapolis, MN 1182-ZN
Assay: In vitro enzyme inhibition assay at human NEP (fluorogenic peptide substrate)
Assay type: biochemical
Conditions: recombinant human NEP; 10 μM fluorogenic substrate Mca-D-Arg-Arg-Leu-Dap-(Dnp)-OH; 37° C.; 30 minute preincubation; read-out: pKi value at human NEP (converted)
Method: In Vitro Assays for the Quantitation of Inhibitor Potencies (IC50) at Human and Rat NEP, and Human ACE
The inhibitory activities of compounds at human and rat neprilysin (EC 3.4.24.11; NEP) and human angiotensin converting enzyme (ACE) were determined using in vitro assays as described below.
Recombinant human NEP and recombinant human ACE were obtained commercially (R&D Systems, Minneapolis, MN, catalog numbers 1182-ZN and 929-ZN, respectively). The fluorogenic peptide substrate Mca-D-Arg-Arg-Leu-Dap-(Dnp)-OH (Medeiros et al. (1997) Braz. J. Med. Biol. Res. 30:1157-62; Anaspec, San Jose, CA) and Abz-Phe-Arg-Lys(Dnp)-Pro-OH (Araujo et al. (2000) Biochemistry 39:8519-8525; Bachem, Torrance, CA) were used in the NEP and ACE assays respectively.
The assays were performed in 384-well white opaque plates at 37° C. using the fluorogenic peptide substrates at a concentration of 10 μM in Assay Buffer (NEP: 50 mM HEPES, pH 7.5, 100 mM NaCl, 0.01% polyethylene glycol sorbitan monolaurate (Tween-20), 10 μM ZnSO4; ACE: 50 mM HEPES, pH 7.5, 100 mM NaCl, 0.01% Tween-20, 1 μM ZnSO4).
Test compounds were assayed over the range of concentrations from 10 μM to 20 pM. Test compounds were added to the enzymes and incubated for 30 minute at 37° C. prior to initiating the reaction by the addition of substrate. Reactions were terminated after 20 minutes of incubation at 37° C. by the addition of glacial acetic acid to a final concentration of 3.6% (v/v).
Plates were read on a fluorometer with excitation and emission wavelengths set to 320 nm and 405 nm, respectively. Inhibition constants were obtained by nonlinear regression of the data using the equation (GraphPad Software, Inc., San Diego, CA): ν=ν0/[1+(I/K′)] where ν is the reaction rate, ν0 is the uninhibited reaction rate, I is the inhibitor concentration and K′ is the apparent inhibition constant.

T1 sequence (P08473 52-750 limits assumed): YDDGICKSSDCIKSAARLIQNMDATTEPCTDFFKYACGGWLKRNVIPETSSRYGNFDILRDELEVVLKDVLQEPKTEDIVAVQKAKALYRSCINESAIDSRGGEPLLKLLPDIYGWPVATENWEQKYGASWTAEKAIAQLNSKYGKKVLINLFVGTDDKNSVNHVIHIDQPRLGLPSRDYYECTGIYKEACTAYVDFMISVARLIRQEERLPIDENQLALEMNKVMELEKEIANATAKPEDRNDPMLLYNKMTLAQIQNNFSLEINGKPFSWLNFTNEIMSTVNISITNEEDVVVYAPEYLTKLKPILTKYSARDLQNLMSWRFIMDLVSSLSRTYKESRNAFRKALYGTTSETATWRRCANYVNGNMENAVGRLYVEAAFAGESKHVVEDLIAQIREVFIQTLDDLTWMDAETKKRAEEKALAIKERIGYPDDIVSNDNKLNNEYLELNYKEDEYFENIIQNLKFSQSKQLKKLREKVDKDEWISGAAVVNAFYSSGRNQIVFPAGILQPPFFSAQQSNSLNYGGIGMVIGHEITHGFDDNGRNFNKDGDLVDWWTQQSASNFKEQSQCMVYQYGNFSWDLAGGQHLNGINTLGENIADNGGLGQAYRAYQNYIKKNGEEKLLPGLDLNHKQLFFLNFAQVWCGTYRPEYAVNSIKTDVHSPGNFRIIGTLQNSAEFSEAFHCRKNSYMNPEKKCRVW

Ki [nM] | Compound
≤ 1 | C[C@@](COCCCO)(C[C@@H](Cc1ccc(-c2cc(Cl)ccc2F)cc1)NC(=O)c1cnn[nH]1)C(=O)O [Example 2P, (2S,4R)-5-(5′-Chloro-2′-fluorobiphenyl-4-yl)-2-(3-hydroxypropoxymethyl)-2-methyl-4-[(3H-[1,2,3]triazole-4-carbonyl)amino]pentanoic Acid]
≤ 1 | COc1cc(C(=O)N[C@H](Cc2ccc(-c3cccc(Cl)c3)cc2)C[C@@](C)(CO)C(=O)O)on1 [Example 6A, (2S,4R)-5-(3′-Chlorobiphenyl-4-yl)-2-hydroxymethyl-4-[(3-methoxyisoxazole-5-carbonyl)amino]-2-methylpentanoic Acid]
≤ 1 | COn1cc(C(=O)N[C@H](Cc2ccc(-c3cc(Cl)ccc3F)cc2)C[C@@](C)(CO)C(=O)O)nn1 [Example 4B, (2S,4R)-5-(5′-Chloro-2′-fluorobiphenyl-4-yl)-2-hydroxymethyl-4-[(1-methoxy-1H-[1.2.3]triazole-4-carbonyl)amino]-2-methylpentanoic Acid]
≤ 1 | C[C@@](CO)(C[C@@H](Cc1ccc(-c2cc(Cl)ccc2F)cc1)NC(=O)c1coc(=O)[nH]1)C(=O)O [Example 5C, (2S,4R)-5-(5′-Chloro-2′-fluorobiphenyl-4-yl)-2-hydroxymethyl-2-methyl-4-[(2-oxo-2,3-dihydro-oxazole-4-carbonyl)amino]pentanoic Acid]
≤ 1 | C[C@@](CO)(C[C@@H](Cc1ccc(-c2cc(Cl)ccc2F)cc1)NC(=O)c1c[nH]c(=O)o1)C(=O)O [Example 5D, (2S,4R)-5-(5′-Chloro-2′-fluorobiphenyl-4-yl)-2-hydroxymethyl-2-methyl-4-[(2-oxo-2,3-dihydro-oxazole-5-carbonyl)amino]pentanoic Acid]
≤ 1 | COC[C@](C)(C[C@@H](Cc1ccc(-c2cc(Cl)ccc2F)cc1)NC(=O)c1c[nH]nn1)C(=O)O [Example 2N, (2S,4R)-5-(5′-Chloro-2′-fluorobiphenyl-4-yl)-2-methoxymethyl-2-methyl-4-[(1H-[1,2,3]triazole-4-carbonyl)amino]pentanoic Acid]
≤ 1 | CCOc1cc(C(=O)N[C@H](Cc2ccc(-c3cccc(Cl)c3)cc2)C[C@@](C)(CO)C(=O)O)n[nH]1 [Example 7A, (2S,4R)-5-(3′-Chlorobiphenyl-4-yl)-4-[(5-ethoxy-1H-pyrazole-3-carbonyl)amino]-2-hydroxymethyl-2-methylpentanoic Acid]
≤ 1 | Cc1ccc(Cl)cc1-c1ccc(C[C@H](C[C@@](C)(CO)C(=O)O)NC(=O)c2c[nH]nn2)cc1 [Example 2G, (2S,4R)-5-(5′-Chloro-2′-methylbiphenyl-4-yl)-2-hydroxymethyl-2-methyl-4-[(1H-[1,2,3]triazole-4-carbonyl)amino]pentanoic Acid]
≤ 1 | CCc1cc(C(=O)N[C@H](Cc2ccc(-c3cc(Cl)ccc3F)cc2)C[C@@](C)(CO)C(=O)O)on1 [Example 6H]
≤ 1 | COc1cc(C(=O)N[C@H](Cc2ccc(-c3cc(Cl)ccc3F)cc2)C[C@@](C)(CO)C(=O)O)n[nH]1 [Example 7E, (2S,4R)-5-(5′-Chloro-2′-fluorobiphenyl-4-yl)-2-hydroxymethyl-4-[(5-methoxy-1H-pyrazole-3-carbonyl)amino]-2-methylpentanoic Acid]
1 to 3.16 | C[C@@](CO)(C[C@@H](Cc1ccc(-c2cc(Cl)ccc2F)cc1)NC(=O)c1c[nH]nn1)C(=O)O [Example 2E, (2S,4R)-5-(5′-Chloro-2′-fluorobiphenyl-4-yl)-2-hydroxymethyl-2-methyl-4-[(1H-[1,2,3]triazole-4-carbonyl)amino]pentanoic Acid]
≤ 1 | CC(C)CC(=O)OC[C@](C)(C[C@@H](Cc1ccc(-c2ccccc2)cc1)NC(=O)c1cnn[nH]1)C(=O)O [Example 1F, (2S,4R)-5-Biphenyl-4-yl-2-methyl-2-(3-methylbutyryloxymethyl)-4-[(3H-[1,2,3]triazole-4-carbonyl)amino]pentanoic Acid]
≤ 1 | CC(C)OC[C@](C)(C[C@@H](Cc1ccc(-c2cc(Cl)ccc2F)cc1)NC(=O)c1cnn[nH]1)C(=O)O [Example 2R, (2S,4R)-5-(5′-Chloro-2′-fluorobiphenyl-4-yl)-2-isopropoxymethyl-2-methvl-4-[(3H-[1,2,3]triazole-4-carbonyl)amino]pentanoic Acid]
1 to 3.16 | COC[C@](C)(C[C@@H](Cc1ccc(-c2cc(Cl)ccc2F)cc1)NC(=O)c1cc(C(C)=O)n[nH]1)C(=O)O [Example 8B, (2S,4R)-4-[(5-Acetyl-2H-pyrazole-3-carbonyl)amino]-5-(5′-chloro-2′-fluorobiphenyl-4-yl)-2-methoxymethyl-2-methylpentanoic Acid]
1 to 3.16 | CCOc1cc(C(=O)N[C@H](Cc2ccc(-c3cc(Cl)ccc3F)cc2)C[C@@](C)(COC)C(=O)O)[nH]n1 [Example 7D, (2S,4R)-5-(5′-Chloro-2′-fluorobiphenyl-4-yl)-4-[(5-ethoxy-2H-pyrazole-3-carbonyl)-amino]-2-methoxymethyl-2-methylpentanoic Acid]
≤ 1 | CC(=O)c1cc(C(=O)N[C@H](Cc2ccc(-c3cc(Cl)ccc3F)cc2)C[C@@](C)(CO)C(=O)O)[nH]n1 [Example 8A, (2S,4R)-4-[(5-Acetyl-2H-pyrazole-3-carbonyl)amino]-5-(5′-chloro-2′-fluorobiphenyl-4-yl)-2-hydroxymethyl-2-methylpentanoic Acid]
1 to 3.16 | CCOC[C@](C)(C[C@@H](Cc1ccc(-c2ccccc2)cc1)NC(=O)c1c[nH]nn1)C(=O)O [Example 1I, (2S,4R)-5-Biphenyl-4-yl-2-ethoxymethyl-2-methyl-4-[(1H-[1,2,3]triazole-4-carbonyl)amino]pentanoic Acid]
≤ 1 | CC(C)c1cc(C(=O)N[C@H](Cc2ccc(-c3cc(Cl)ccc3F)cc2)C[C@@](C)(CO)C(=O)O)[nH]n1 [Example 7C, (2S,4R)-5-(5′-Chloro-2′-fluorobiphenyl-4-yl)-2-hydroxymethyl-4-[(5-isopropyl-2H-pyrazole-3-carbonyl)amino]-2-methylpentanoic Acid]
1 to 3.16 | COC[C@](C)(C[C@@H](Cc1ccc(-c2cc(Cl)ccc2F)cc1)NC(=O)c1cc(O)no1)C(=O)O [Example 6K, (2S,4R)-5-(5′-Chloro-2′-fluorobiphenyl-4-yl)-4-[(3-hydroxyisoxazole-5-carbonyl)amino]-2-methoxymethyl-2-methylpentanoic Acid]
≤ 1 | C[C@@](CO)(C[C@@H](Cc1ccc(-c2ccccc2Cl)cc1)NC(=O)c1c[nH]nn1)C(=O)O [Example 2B, (2S,4R)-5-(2′-Chlorobiphenyl-4-yl)-2-hydroxymethyl-2-methyl-4-[(1H-[1,2,3]triazole-4-carbonyl)amino]pentanoic Acid]
≤ 1 | CCOC[C@](C)(C[C@@H](Cc1ccc(-c2cc(Cl)ccc2F)cc1)NC(=O)c1cc(O)no1)C(=O)O [Example 6N, (2S,4R)-5-(5′-Chloro-2′-fluorobiphenyl-4-yl)-2-ethoxymethyl-4-[(3-hydroxyisoxazole-5-carbonyl)amino]-2-methylpentanoic Acid]

Compound | Ki [nM]
CC(=O)OC[C@](C)(C[C@@H](Cc1ccc(-c2ccccc2)cc1)NC(=O)c1cnn[nH]1)C(=O)O [Example 1D, (2S,4R)-2-Acetoxymethyl-5-biphenyl-4-yl-2-methyl-4-[(3H-[1,2,3]triazole-4-carbonyl)amino]pentanoic Acid] | ≤ 1
